Read-outs that look alike come from different tables or passages of the source.
Key:
Staphylococcus aureus [1] = assay: Control: microbicidal activity of the amino acid or analogue alone (no glucose, MPO, glucose oxidase) in the presence of blood; type: cell-based; settings: for log reduction at 5000 µM: Staphylococcus aureus, 1 h, read-out: Log Reduction 60 min
Source text: As a control to determine the microbicidal activity of the amino acids alone, the foregoing procedure was followed without replication, except in the absence of glucose, MPO, and glucose oxidase.

Staphylococcus aureus [2] = assay: Microbicidal activity of the myeloperoxidase system (p-MPO, glucose oxidase, glucose) with amino acids in the presence of blood, CFU plate counts; synergy determination from these CFU; type: cell-based; settings: for Average Viability CFU/ml 60 min / Log 10 (CFU + 1) Survivors 60 min / Log Reduction 60 min: Table 3, amino acid 5 mM (none: 0 mM), MPO 38 U/ml, GO 33.3 U/ml; for Average Viability CFU/ml 50 min / Log Reduction 50 min: MPO 4.7 U/ml, GO 4.2 U/ml
Experimental: Bacterial suspensions, specifically Staphylococcus aureus in this example, were prepared by the shake flask method to achieve late log to early stationary phase growth. Bacteria were grown 24 hours in trypticase soy broth (TSB) at 35° C. The cultures were centrifuged at 4,000 rpm for 10 minutes and the supernatants removed. The pellet was collected and washed twice with sterile 0.9% normal saline (NS). The washed microorganisms were suspended and diluted with normal saline to a 3 McFarland standard, i.e., approximately 10^9 bacteria colony forming units (CFU) per mL. Actual colony counts are confirmed by serial dilutions (10^−1 to 10^−5 or 10^−6) plated on TSA and incubated overnight at 35° C. To obtain an approximate final working target inoculum of 10^7 CFU/mL, 15 microliters of organisms per mL of final reaction mixture are used.
Glucose oxidase (GO) from Aspergillus Niger was purchased from Biozyme, Inc., UK, Cat #GO3A, 270 U/mg). Porcine Myeloperoxidase (p-MPO) (Exoxemis, Inc., Little Rock, Ark. U.S.A., 375 U/mg). Sterile stock solutions of D-glucose and sodium chloride were prepared and used at a final concentration of 150 mM each. L-Lysine hydrochloride (Spectrum Chemical Cat #L1142) was prepared as a 100 mM stock solution. Catalase (Sigma, Cat #C-40) was prepared as a 1% stock solution in sterile 0.9% normal saline. Blood was collected by venipuncture and used as whole blood within the same day.
Staphylococcus aureus were used to give a final target concentration of 2-3×10^7 CFU (7.4 log 10) per mL and venous whole blood was used to give a final concentration of 3%. Glucose was added to the reaction mixtures to a final concentration of 150 mM, which initiated the microbicidal reaction. The final volume of the reaction mixtures was 1 mL. The reactions were allowed to run from 30 minutes to 2 hours, as needed, at room temperature or at 37° C. in a dry bath. At the specified time points the reaction mixtures were treated with 100 microliters of a catalase solution, containing a minimum of 100 units/μL, to consume remaining peroxide and terminate the oxidative killing. Serial dilution plate counts were performed from the contents of each vial in sterile saline and inoculated onto trypticase soy agar (TSA) for quantitative culture. Plates were then incubated at 37° C. and counts taken at 24 hours. […] The results are shown in Table 1, as the average of 2 replicates.
The amino acids alone, in the absence of MPO were tested to rule out their microbicidal activity. The results are shown in Table 2 to Table 6, as the average of 2 replicates.
The amino acid analogues alone, in the absence of MPO, were tested to rule out their microbicidal activity. […]
The effect of two-way combinations of individual amino acids with L-isoleucine, as potential enhancing agents, for MPO microbicidal action in the presence of blood, was therefore examined by following the procedure of Example 5.
The Actual CFU observed for the pair is then divided by the Predicted CFU and multiplied by 100 to calculate the % of Predicted value. This value is then to be compared to the threshold value, discussed in the next section, to determine whether the pair are synergistic, antagonistic, or additive.
Calculation of appropriate threshold values for determination of synergism and antagonism was based upon the variability of replicated CFU survivor measures.

[3] = amino acid alone 5 mM, MPO 0, GO 0, no glucose, blood, without replication
[4] = MPO 100 μg/mL, AA 20 mM, 30 min
[5] = MPO 100 μg/mL, AA 20 mM, 60 min
[6] = Table 10, single amino acid 2.5 mM, in the presence of blood, 50 min
[7] = Table 13, single amino acid 2.5 mM, in the presence of blood, 50 min
[8] = Table 14, single amino acid 2.5 mM, in the presence of blood, 50 min
[9] = Table 11, single amino acid 2.5 mM, in the presence of blood, 50 min
[10] = Table 19, amino acid 3.5 mM, 50 min
[11] = single amino acid 2.5 mM, blood

Compound	Average Viability CFU/ml 60 min (Staphylococcus aureus [1]; [3])	Log 10 (CFU + 1) Survivors (Staphylococcus aureus [2]; MPO 25 μg/mL, AA 5 mM, 30 min)	Log 10 (CFU + 1) Survivors (Staphylococcus aureus [2]; MPO 25 μg/mL, AA 5 mM, 60 min)	Log 10 (CFU + 1) Survivors (Staphylococcus aureus [2]; MPO 25 μg/mL, AA […], 30 min)	Log 10 (CFU + 1) Survivors (Staphylococcus aureus [2]; MPO 25 μg/mL, AA […], 60 min)	Log 10 (CFU + 1) Survivors (Staphylococcus aureus [2]; MPO 100 μg/mL, AA 5 mM, 30 min)	Log 10 (CFU + 1) Survivors (Staphylococcus aureus [2]; MPO 100 μg/mL, AA 5 mM, 60 min)	Log 10 (CFU + 1) Survivors (Staphylococcus aureus [2]; [4])	Log 10 (CFU + 1) Survivors (Staphylococcus aureus [2]; [5])	Average Viability CFU/ml 60 min (Staphylococcus aureus [2]; blood)	Log 10 (CFU + 1) Survivors 60 min (Staphylococcus aureus [2]; blood)	Log Reduction 60 min (Staphylococcus aureus [2]; blood)	Average Viability CFU/ml 50 min (Staphylococcus aureus [2]; [6])	Log Reduction 50 min (Staphylococcus aureus [2]; [6])	also measured
O=C(O)[C@@H]1C[C@@H](O)CN1 [L-Hydroxyproline]	20400000 CFU/ml	7.3	7.3	7.4	6.1	7.2	0.9	7.2	7.3	0 CFU/ml	0.0	7.3	13100000 CFU/ml	0.3	log reduction at 5000 µM (Staphylococcus aureus [1]): 0; Average Viability CFU/ml 50 min (Staphylococcus aureus [2]; [7]): 11450000 CFU/ml; Log Reduction 50 min (Staphylococcus aureus [2]; [7]): 0.3; Average Viability CFU/ml 50 min (Staphylococcus aureus [2]; [8]): 11550000 CFU/ml; Log Reduction 50 min (Staphylococcus aureus [2]; [8]): 0.4
CC(C)C[C@H](N)C(=O)O [L-Leucine]	18700000 CFU/ml	4.1	0.0	3.9	0.0	0.0	0.0	0.0	0.0	0 CFU/ml	0.0	7.3	214500 CFU/ml	2.1	log reduction at 5000 µM (Staphylococcus aureus [1]; [3]): 0.1; Average Viability CFU/ml 50 min (Staphylococcus aureus [2]; [9]): 200500 CFU/ml; Log Reduction 50 min (Staphylococcus aureus [2]; [9]): 2.1; Average Viability CFU/ml 50 min (Staphylococcus aureus [2]; [10]): 204000 CFU/ml; Log Reduction 50 min (Staphylococcus aureus [2]; [10]): 2.1; Average Viability CFU/ml 50 min (Staphylococcus aureus [2]; [11]): 200500 CFU/ml; Log Reduction 50 min (Staphylococcus aureus [2]; [11]): 2.1
